Experimental data from ChEMBL document CHEMBL1649134, “Occurrence of efflux mechanism and cephalosporinase variant in a population of Enterobacter aerogenes and Klebsiella pneumoniae isolates producing extended-spectrum beta-lactamases” (2009).
In brackets after ≈: the same amount, converted by molar mass.

Experiments:
Assay type in all cases: functional
[1] = tested on: Klebsiella aerogenes; assay: Antimicrobial activity against multidrug resistant Enterobacter aerogenes isolate 15 by broth dilution method in presence of 26.3 mg/L efflux pump inhibitor phenylalanine-arginine-beta-naphthylamide
[2] = tested on: Klebsiella aerogenes; assay: Antimicrobial activity against multidrug resistant Enterobacter aerogenes isolate 16 by broth dilution method in presence of 26.3 mg/L efflux pump inhibitor phenylalanine-arginine-beta-naphthylamide
[3] = tested on: Klebsiella aerogenes; assay: Antimicrobial activity against multidrug resistant Enterobacter aerogenes isolate 20 by broth dilution method in presence of 26.3 mg/L efflux pump inhibitor phenylalanine-arginine-beta-naphthylamide
[4] = tested on: Klebsiella aerogenes; assay: Antimicrobial activity against multidrug resistant Enterobacter aerogenes isolate 21 by broth dilution method in presence of 26.3 mg/L efflux pump inhibitor phenylalanine-arginine-beta-naphthylamide
[5] = tested on: Klebsiella aerogenes; assay: Antimicrobial activity against multidrug resistant Enterobacter aerogenes isolate 23 by broth dilution method in presence of 26.3 mg/L efflux pump inhibitor phenylalanine-arginine-beta-naphthylamide
[6] = tested on: Klebsiella aerogenes; assay: Antimicrobial activity against multidrug resistant Enterobacter aerogenes isolate 24 by broth dilution method in presence of 26.3 mg/L efflux pump inhibitor phenylalanine-arginine-beta-naphthylamide
[7] = tested on: Klebsiella aerogenes; assay: Antimicrobial activity against multidrug resistant Enterobacter aerogenes isolate 25 by broth dilution method in presence of 26.3 mg/L efflux pump inhibitor phenylalanine-arginine-beta-naphthylamide
[8] = tested on: Klebsiella aerogenes; assay: Antimicrobial activity against multidrug resistant Enterobacter aerogenes isolate 26 by broth dilution method in presence of 26.3 mg/L efflux pump inhibitor phenylalanine-arginine-beta-naphthylamide
[9] = tested on: Klebsiella pneumoniae; assay: Antimicrobial activity against multidrug resistant Klebsiella pneumoniae isolate 2 by broth dilution method in presence of 26.3 mg/L efflux pump inhibitor phenylalanine-arginine-beta-naphthylamide
[10] = tested on: Klebsiella pneumoniae; assay: Antimicrobial activity against multidrug resistant Klebsiella pneumoniae isolate 4 by broth dilution method in presence of 26.3 mg/L efflux pump inhibitor phenylalanine-arginine-beta-naphthylamide
[11] = tested on: Klebsiella pneumoniae; assay: Antimicrobial activity against multidrug resistant Klebsiella pneumoniae isolate 5 by broth dilution method in presence of 26.3 mg/L efflux pump inhibitor phenylalanine-arginine-beta-naphthylamide
[12] = tested on: Klebsiella pneumoniae; assay: Antimicrobial activity against multidrug resistant Klebsiella pneumoniae isolate 7 by broth dilution method in presence of 26.3 mg/L efflux pump inhibitor phenylalanine-arginine-beta-naphthylamide
[13] = tested on: Klebsiella pneumoniae; assay: Antimicrobial activity against multidrug resistant Klebsiella pneumoniae isolate 8 by broth dilution method in presence of 26.3 mg/L efflux pump inhibitor phenylalanine-arginine-beta-naphthylamide
[14] = tested on: Klebsiella pneumoniae; assay: Antimicrobial activity against multidrug resistant Klebsiella pneumoniae isolate 9 by broth dilution method in presence of 26.3 mg/L efflux pump inhibitor phenylalanine-arginine-beta-naphthylamide
[15] = tested on: Klebsiella pneumoniae; assay: Antimicrobial activity against multidrug resistant Klebsiella pneumoniae isolate 10 by broth dilution method in presence of 26.3 mg/L efflux pump inhibitor phenylalanine-arginine-beta-naphthylamide
[16] = tested on: Klebsiella pneumoniae; assay: Antimicrobial activity against multidrug resistant Klebsiella pneumoniae isolate 12 by broth dilution method in presence of 26.3 mg/L efflux pump inhibitor phenylalanine-arginine-beta-naphthylamide
[17] = tested on: Klebsiella pneumoniae; assay: Antimicrobial activity against multidrug resistant Klebsiella pneumoniae isolate 14 by broth dilution method in presence of 26.3 mg/L efflux pump inhibitor phenylalanine-arginine-beta-naphthylamide
[18] = tested on: Klebsiella aerogenes; assay: Antimicrobial activity against multidrug resistant Enterobacter aerogenes isolate 4 by broth dilution method
[19] = tested on: Klebsiella aerogenes; assay: Antimicrobial activity against multidrug resistant Enterobacter aerogenes isolate 5 by broth dilution method
[20] = tested on: Klebsiella aerogenes; assay: Antimicrobial activity against multidrug resistant Enterobacter aerogenes isolate 6 by broth dilution method
[21] = tested on: Klebsiella aerogenes; assay: Antimicrobial activity against multidrug resistant Enterobacter aerogenes isolate 7 by broth dilution method
[22] = tested on: Klebsiella aerogenes; assay: Antimicrobial activity against multidrug resistant Enterobacter aerogenes isolate 9 by broth dilution method
[23] = tested on: Klebsiella aerogenes; assay: Antimicrobial activity against multidrug resistant Enterobacter aerogenes isolate 10 by broth dilution method
[24] = tested on: Klebsiella aerogenes; assay: Antimicrobial activity against multidrug resistant Enterobacter aerogenes isolate 12 by broth dilution method
[25] = tested on: Klebsiella aerogenes; assay: Antimicrobial activity against multidrug resistant Enterobacter aerogenes isolate 13 by broth dilution method
[26] = tested on: Klebsiella aerogenes; assay: Antimicrobial activity against multidrug resistant Enterobacter aerogenes isolate 16 by broth dilution method
[27] = tested on: Klebsiella aerogenes; assay: Antimicrobial activity against multidrug resistant Enterobacter aerogenes isolate 17 by broth dilution method
[28] = tested on: Klebsiella aerogenes; assay: Antimicrobial activity against multidrug resistant Enterobacter aerogenes isolate 19 by broth dilution method
[29] = tested on: Klebsiella aerogenes; assay: Antimicrobial activity against multidrug resistant Enterobacter aerogenes isolate 21 by broth dilution method
[30] = tested on: Klebsiella aerogenes; assay: Antimicrobial activity against multidrug resistant Enterobacter aerogenes isolate 22 by broth dilution method
[31] = tested on: Klebsiella aerogenes; assay: Antimicrobial activity against multidrug resistant Enterobacter aerogenes isolate 23 by broth dilution method
[32] = tested on: Klebsiella aerogenes; assay: Antimicrobial activity against multidrug resistant Enterobacter aerogenes isolate 25 by broth dilution method
[33] = tested on: Klebsiella aerogenes; assay: Antimicrobial activity against multidrug resistant Enterobacter aerogenes isolate 26 by broth dilution method
[34] = tested on: Klebsiella pneumoniae; assay: Antimicrobial activity against multidrug resistant Klebsiella pneumoniae isolate 2 by broth dilution method
[35] = tested on: Klebsiella pneumoniae; assay: Antimicrobial activity against multidrug resistant Klebsiella pneumoniae isolate 4 by broth dilution method
[36] = tested on: Klebsiella pneumoniae; assay: Antimicrobial activity against multidrug resistant Klebsiella pneumoniae isolate 5 by broth dilution method
[37] = tested on: Klebsiella pneumoniae; assay: Antimicrobial activity against multidrug resistant Klebsiella pneumoniae isolate 10 by broth dilution method
[38] = tested on: Klebsiella pneumoniae; assay: Antimicrobial activity against multidrug resistant Klebsiella pneumoniae isolate 11 by broth dilution method
[39] = tested on: Klebsiella pneumoniae; assay: Antimicrobial activity against multidrug resistant Klebsiella pneumoniae isolate 12 by broth dilution method
[40] = tested on: Klebsiella pneumoniae; assay: Antimicrobial activity against multidrug resistant Klebsiella pneumoniae isolate 13 by broth dilution method
[41] = tested on: Klebsiella aerogenes; assay: Antimicrobial activity against multidrug resistant Enterobacter aerogenes ATCC 15038 by broth dilution method
[42] = tested on: Klebsiella aerogenes; assay: Antimicrobial activity against multidrug resistant Enterobacter aerogenes isolate 3 by broth dilution method in presence of 26.3 mg/L efflux pump inhibitor phenylalanine-arginine-beta-naphthylamide
[43] = tested on: Klebsiella aerogenes; assay: Antimicrobial activity against multidrug resistant Enterobacter aerogenes isolate 4 by broth dilution method in presence of 26.3 mg/L efflux pump inhibitor phenylalanine-arginine-beta-naphthylamide
[44] = tested on: Klebsiella aerogenes; assay: Antimicrobial activity against multidrug resistant Enterobacter aerogenes isolate 6 by broth dilution method in presence of 26.3 mg/L efflux pump inhibitor phenylalanine-arginine-beta-naphthylamide
[45] = tested on: Klebsiella aerogenes; assay: Antimicrobial activity against multidrug resistant Enterobacter aerogenes isolate 7 by broth dilution method in presence of 26.3 mg/L efflux pump inhibitor phenylalanine-arginine-beta-naphthylamide
[46] = tested on: Klebsiella aerogenes; assay: Antimicrobial activity against multidrug resistant Enterobacter aerogenes isolate 8 by broth dilution method in presence of 26.3 mg/L efflux pump inhibitor phenylalanine-arginine-beta-naphthylamide
[47] = tested on: Klebsiella aerogenes; assay: Antimicrobial activity against multidrug resistant Enterobacter aerogenes isolate 10 by broth dilution method in presence of 26.3 mg/L efflux pump inhibitor phenylalanine-arginine-beta-naphthylamide
[48] = tested on: Klebsiella aerogenes; assay: Antimicrobial activity against multidrug resistant Enterobacter aerogenes isolate 12 by broth dilution method in presence of 26.3 mg/L efflux pump inhibitor phenylalanine-arginine-beta-naphthylamide
[49] = tested on: Klebsiella aerogenes; assay: Antimicrobial activity against multidrug resistant Enterobacter aerogenes isolate 13 by broth dilution method in presence of 26.3 mg/L efflux pump inhibitor phenylalanine-arginine-beta-naphthylamide

## C[C@@H]1CN(c2c(F)c(N)c3c(=O)c(C(=O)O)cn(C4CC4)c3c2F)C[C@H](C)N1 [SPARFLOXACIN]
[1]
  MIC: 8 µg/mL
[2]
  MIC: 8 µg/mL
[3]
  MIC: 16 µg/mL
[4]
  MIC: 32 µg/mL
[5]
  MIC: 4 µg/mL
[6]
  MIC: 16 µg/mL
[7]
  MIC: 8 µg/mL
[8]
  MIC: 4 µg/mL
[9]
  MIC: ≤ 0.06 µg/mL
[10]
  MIC: 2 µg/mL
[11]
  MIC: ≤ 0.06 µg/mL
[12]
  MIC: ≤ 0.06 µg/mL
[13]
  MIC: ≤ 0.06 µg/mL
[14]
  MIC: ≤ 0.06 µg/mL
[15]
  MIC: 2 µg/mL
[16]
  MIC: ≤ 0.06 µg/mL
[17]
  MIC: ≤ 0.06 µg/mL
[18]
  MIC: 128 µg/mL (≈ 326 µM)
[19]
  MIC: 512 µg/mL (≈ 1300 µM)
[20]
  MIC: 0.125 µg/mL (≈ 0.319 µM)
[21]
  MIC: 128 µg/mL (≈ 326 µM)
[22]
  MIC: 128 µg/mL (≈ 326 µM)
[23]
  MIC: 256 µg/mL (≈ 652 µM)
[24]
  MIC: 128 µg/mL (≈ 326 µM)
[25]
  MIC: 256 µg/mL (≈ 652 µM)
[26]
  MIC: 64 µg/mL (≈ 163 µM)
[27]
  MIC: 256 µg/mL (≈ 652 µM)
[28]
  MIC: 128 µg/mL (≈ 326 µM)
[29]
  MIC: 512 µg/mL (≈ 1300 µM)
[30]
  MIC: 256 µg/mL (≈ 652 µM)
[31]
  MIC: 128 µg/mL (≈ 326 µM)
[32]
  MIC: 128 µg/mL (≈ 326 µM)
[33]
  MIC: 32 µg/mL (≈ 81.5 µM)
[34]
  MIC: 2 µg/mL (≈ 5.1 µM)
[35]
  MIC: 8 µg/mL (≈ 20.4 µM)
[36]
  MIC: 0.125 µg/mL (≈ 0.319 µM)
[37]
  MIC: 8 µg/mL (≈ 20.4 µM)
[38]
  MIC: 8 µg/mL (≈ 20.4 µM)
[39]
  MIC: ≤ 0.06 µg/mL
[40]
  MIC: 2.1 µg/mL (≈ 5.35 µM)
[41]
  MIC: ≤ 0.06 µg/mL
[42]
  MIC: 8 µg/mL
[43]
  MIC: 8 µg/mL
[44]
  MIC: ≤ 0.06 µg/mL
[45]
  MIC: 4 µg/mL
[46]
  MIC: 4 µg/mL
[47]
  MIC: 8 µg/mL
[48]
  MIC: 8 µg/mL
[49]
  MIC: 8 µg/mL

## CN(C)[C@@H]1C(O)=C(C(N)=O)C(=O)[C@@]2(O)C(O)=C3C(=O)c4c(O)cccc4[C@@](C)(O)[C@H]3C[C@@H]12 [TETRACYCLINE]
[1]
  MIC: 8 µg/mL
[2]
  MIC: 2 µg/mL
[3]
  MIC: 4 µg/mL
[4]
  MIC: 8 µg/mL
[5]
  MIC: 8 µg/mL
[6]
  MIC: 8 µg/mL
[7]
  MIC: 4 µg/mL
[8]
  MIC: 2 µg/mL
[9]
  MIC: 2 µg/mL
[10]
  MIC: 256 µg/mL
[11]
  MIC: 128 µg/mL
[12]
  MIC: 128 µg/mL
[13]
  MIC: 128 µg/mL
[14]
  MIC: 128 µg/mL
[15]
  MIC: 256 µg/mL
[16]
  MIC: 256 µg/mL
[17]
  MIC: 256 µg/mL
[18]
  MIC: 128 µg/mL (≈ 288 µM)
[19]
  MIC: 128 µg/mL (≈ 288 µM)
[20]
  MIC: 4 µg/mL (≈ 9 µM)
[21]
  MIC: 128 µg/mL (≈ 288 µM)
[22]
  MIC: 64 µg/mL (≈ 144 µM)
[23]
  MIC: 128 µg/mL (≈ 288 µM)
[24]
  MIC: 128 µg/mL (≈ 288 µM)
[25]
  MIC: 64 µg/mL (≈ 144 µM)
[26]
  MIC: 64 µg/mL (≈ 144 µM)
[27]
  MIC: 64 µg/mL (≈ 144 µM)
[28]
  MIC: 64 µg/mL (≈ 144 µM)
[29]
  MIC: 128 µg/mL (≈ 288 µM)
[30]
  MIC: 128 µg/mL (≈ 288 µM)
[31]
  MIC: 64 µg/mL (≈ 144 µM)
[32]
  MIC: 64 µg/mL (≈ 144 µM)
[33]
  MIC: 32 µg/mL (≈ 72 µM)
[34]
  MIC: 64 µg/mL (≈ 144 µM)
[35]
  MIC: 2 µg/mL (≈ 4.5 µM)
[36]
  MIC: 2 µg/mL (≈ 4.5 µM)
[37]
  MIC: 2 µg/mL (≈ 4.5 µM)
[38]
  MIC: 4 µg/mL (≈ 9 µM)
[39]
  MIC: 2 µg/mL (≈ 4.5 µM)
[40]
  MIC: 4 µg/mL (≈ 9 µM)
[41]
  MIC: 1 µg/mL (≈ 2.25 µM)
[42]
  MIC: 8 µg/mL
[43]
  MIC: 8 µg/mL
[44]
  MIC: 8 µg/mL
[45]
  MIC: 16 µg/mL
[46]
  MIC: 2 µg/mL
[47]
  MIC: 8 µg/mL
[48]
  MIC: 16 µg/mL
[49]
  MIC: 8 µg/mL
